Measurements from ChEMBL document CHEMBL4732115, “Discovery of novel cell-penetrating and tumor-targeting peptide-drug conjugate (PDC) for programmable delivery of paclitaxel and cancer treatment” (Eur J Med Chem, 2021).
Activity calls are given as the source filed them. The rule behind the calls is not given here. Peptide text beside a SMILES is read from it. * marks the point of attachment. X1 = CC(=O)O[C@H]1C(=O)[C@@]2(C)[C@H]([C@H](OC(=O)c3ccccc3)[C@]3(O)C[C@H](OC(=O)[C@H](OC(=O)OCCS*)[C@@H](NC(=O)c4ccccc4)c4ccccc4)C(C)=C1C3(C)C)[C@]1(OC(C)=O)CO[C@@H]1C[C@@H]2O; X2 = NCCCC[C@H](N*)C(=O)NC(=O)C1CCC(=O)N1

Experiments:
[1] = Toxicity in human MCF7 cells xenografted in BALB/c nude mouse assessed as morphological changes in liver at 8 to 12 umol/kg, ip administered every two days for two weeks measured post last dose by H and E staining based histological analysis; type: organism-based; settings: in vivo, 336 h, dose 8-12 µmol/kg, time 2 weeks
[2] = Neurotoxicity in BALB/c mouse assessed as change in glutamate level at 12 umol/kg, ip administered every two days for 14 days measured post last dose by LC-MS analysis; type: toxicity, organism-based; settings: in vivo, 336 h, dose 12 µmol/kg, time 14 day
MCF7 [3] = test: Induction of apoptosis in human MCF7 cells xenografted in ip dosed BALB/c nude mouse assessed as up regulation of Bax expression administered every two days for two weeks measured post last dose by Western blot analysis; type: functional, organism-based; settings: dose 8-12 µmol/kg, time 2.0 weeks
[4] = Drug uptake in human MCF7 cells at 20 nM measured after 4 hrs in presence of MMP inhibitor ilomastat by LC-MS analysis; type: ADME, cell-based; settings: mcf7, 4 h, 0.02 µM
[5] = Toxicity in human MCF7 cells xenografted in BALB/c nude mouse assessed as morphological changes in kidney at 8 to 12 umol/kg, ip administered every two days for two weeks measured post last dose by H and E staining based histological analysis; type: organism-based; settings: in vivo, 336 h, dose 8-12 µmol/kg, time 2 weeks
[6] = Neurotoxicity in BALB/c mouse assessed as increase in pain sensitivity at 12 umol/kg, ip administered every two days for 14 days by hot-plate test; type: toxicity, organism-based; settings: in vivo, 336 h, dose 12 µmol/kg, time 14 day
[7] = Drug uptake in human MCF7 cells at 20 nM measured after 4 hrs by LC-MS analysis; type: ADME, cell-based; settings: mcf7, 4 h, 0.02 µM
MCF7 [8] = test: Antitumor activity against human MCF7 cells xenografted in BALB/c nude mouse assessed as reduction in tumor volume at 8 umol/kg, ip administered every two days for two weeks relative to control; type: functional; set-up: scale not given: the % may be the effect or the level left; settings: dose 8 µmol/kg; time 2 weeks
[9] = Drug conversion in tumor of BALB/c nude mouse xenografted with human MCF7 cells assessed as PTX formation at 8 to 12 umol/kg, ip measured after 2 hrs by LC-MS analysis; type: ADME, organism-based, Neoplasm; settings: in vivo, dose 8-12 µmol/kg
MCF7 [10] = test: Cytotoxicity against human MCF7 cells assessed as reduction in cell viability measured after 48 hrs in presence of LHRH by MTT assay; type: functional, cell-based
MCF7 [11] = test: Induction of apoptosis in human MCF7 cells xenografted in ip dosed BALB/c nude mouse assessed as up regulation of cleaved caspase-9 expression administered every two days for two weeks measured post last dose by Western blot analysis; type: functional, organism-based; settings: dose 8-12 µmol/kg, time 2.0 weeks
[12] = Neurotoxicity in BALB/c mouse assessed as change in dopamine level at 12 umol/kg, ip administered every two days for 14 days measured post last dose by LC-MS analysis; type: toxicity, organism-based; settings: in vivo, 336 h, dose 12 µmol/kg, time 14 day
[13] = Toxicity in human MCF7 cells xenografted in BALB/c nude mouse assessed as morphological changes in spleen at 8 to 12 umol/kg, ip administered every two days for two weeks measured post last dose by H and E staining based histological analysis; type: organism-based; settings: in vivo, 336 h, dose 8-12 µmol/kg, time 2 weeks
[14] = Neurotoxicity in BALB/c mouse assessed as change in noradrenaline level at 12 umol/kg, ip administered every two days for 14 days measured post last dose by LC-MS analysis; type: toxicity, organism-based; settings: in vivo, 336 h, dose 12 µmol/kg, time 14 day
[15] = Myelosuppression in BALB/c mouse assessed as change in lymphocyte count at 12 umol/kg, ip administered every two days for 14 days measured post last dose; type: ADME, organism-based; settings: in vivo, 336 h, dose 12 µmol/kg, time 14 day
A2780 = test: Cytotoxicity against human A2780 cells assessed as reduction in cell viability measured after 48 hrs by MTT assay; type: functional, cell-based; settings: A2780, 48 h
MCF7 [16] = test: Cytotoxicity against human MCF7 cells assessed as reduction in cell viability measured after 48 hrs in presence of MMP inhibitor ilomastat and LHRH by MTT assay; type: functional, cell-based
MCF7 [17] = test: Antitumor activity against human MCF7 cells xenografted in ip dosed BALB/c nude mouse assessed as tumor shrinkage administered every two days for two weeks; type: functional, organism-based; settings: dose 8-12 µmol/kg, time 2.0 weeks
[18] = Neurotoxicity in BALB/c mouse assessed as change in DOPAC level at 12 umol/kg, ip administered every two days for 14 days measured post last dose by LC-MS analysis; type: toxicity, organism-based; settings: in vivo, 336 h, dose 12 µmol/kg, time 14 day
[19] = Drug conversion in tumor of BALB/c nude mouse xenografted with human MCF7 cells assessed as T2-PTX formation at 8 to 12 umol/kg, ip measured after 2 hrs by LC-MS analysis; type: ADME, organism-based, Neoplasm; settings: in vivo, dose 8-12 µmol/kg
MCF7 [20] = test: Antitumor activity against human MCF7 cells xenografted in BALB/c nude mouse assessed as reduction in tumor volume at 12 umol/kg, ip administered every two days for two weeks relative to control; type: functional; set-up: scale not given: the % may be the effect or the level left; settings: dose 12 µmol/kg; time 2 weeks
[21] = Cytotoxicity against human A2780/PTX cells assessed as reduction in cell viability measured after 48 hrs by MTT assay; type: functional, cell-based
[22] = Drug conversion in heart of BALB/c nude mouse xenografted with human MCF7 cells assessed as PTX formation at 8 to 12 umol/kg, ip measured after 2 hrs by LC-MS analysis; type: ADME, organism-based; settings: in vivo, dose 8-12 µmol/kg
MCF7 [23] = test: Induction of mitochondrial membrane potential loss in human MCF7 cells at IC50 measured after 4 hrs by JC-1 staining based flow cytometry; type: functional, cell-based
MCF7 [24] = test: Antitumor activity against human MCF7 cells xenografted in BALB/c nude mouse assessed as reduction in tumor weight at 12 umol/kg, ip administered every two days for two weeks relative to control; type: functional; set-up: scale not given: the % may be the effect or the level left; settings: dose 12 µmol/kg; time 2 weeks
[25] = Neurotoxicity in BALB/c mouse assessed as change in acetylcholine level at 12 umol/kg, ip administered every two days for 14 days measured post last dose by LC-MS analysis; type: toxicity, organism-based; settings: in vivo, 336 h, dose 12 µmol/kg, time 14 day
HT-29 = test: Cytotoxicity against human HT-29 cells assessed as reduction in cell viability measured after 48 hrs by MTT assay; type: functional, cell-based; settings: HT-29, 48 h
[26] = Neurotoxicity in BALB/c mouse assessed as change in serotonin level at 12 umol/kg, ip administered every two days for 14 days measured post last dose by LC-MS analysis; type: toxicity, organism-based; settings: in vivo, 336 h, dose 12 µmol/kg, time 14 day
[27] = Stability of compound in PBS buffer at 0.5 uM measured after 2 hrs by LC-MS analysis; type: physicochemical
[28] = Half life in human plasma at 50 uM by LC-MS analysis; type: ADME, cell-free
MCF7 [29] = test: Induction of apoptosis in human MCF7 cells xenografted in ip dosed BALB/c nude mouse assessed as down regulation of Bcl2 expression administered every two days for two weeks measured post last dose by Western blot analysis; type: functional, organism-based; settings: dose 8-12 µmol/kg, time 2.0 weeks
[30] = Drug conversion in liver of BALB/c nude mouse xenografted with human MCF7 cells assessed as T2-PTX formation at 8 to 12 umol/kg, ip measured after 2 hrs by LC-MS analysis; type: ADME, organism-based; settings: in vivo, dose 8-12 µmol/kg
[31] = molecular target: 72 kDa type IV collagenase (Homo sapiens, UniProt P08253); test: Drug metabolism in PBS buffer assessed as MMP2 (unknown origin)-mediated PTX formation at 0.5 uM incubated for 2 hrs followed by GSH addition and measured after 2 hrs by LC-MS analysis; type: ADME; settings: 4 h
Sequence of 72 kDa type IV collagenase (P08253 whole entry): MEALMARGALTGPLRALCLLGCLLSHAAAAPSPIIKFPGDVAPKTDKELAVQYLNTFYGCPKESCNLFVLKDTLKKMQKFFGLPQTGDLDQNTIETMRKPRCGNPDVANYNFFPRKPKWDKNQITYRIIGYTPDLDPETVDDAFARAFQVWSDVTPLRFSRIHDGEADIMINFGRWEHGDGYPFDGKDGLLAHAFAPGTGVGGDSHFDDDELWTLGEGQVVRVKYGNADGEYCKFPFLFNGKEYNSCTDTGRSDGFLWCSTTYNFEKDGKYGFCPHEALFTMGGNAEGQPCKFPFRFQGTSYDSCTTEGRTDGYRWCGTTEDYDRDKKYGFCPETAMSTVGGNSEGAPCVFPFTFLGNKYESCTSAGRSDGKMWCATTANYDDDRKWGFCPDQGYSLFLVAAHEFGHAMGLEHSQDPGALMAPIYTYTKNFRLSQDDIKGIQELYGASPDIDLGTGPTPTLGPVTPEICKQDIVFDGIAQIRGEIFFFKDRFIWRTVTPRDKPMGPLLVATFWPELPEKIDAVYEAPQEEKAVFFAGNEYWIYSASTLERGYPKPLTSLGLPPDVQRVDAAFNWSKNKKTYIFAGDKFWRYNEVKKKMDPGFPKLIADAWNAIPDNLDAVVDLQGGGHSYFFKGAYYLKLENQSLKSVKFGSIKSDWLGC

Tubulin (Homo sapiens) = Tubulin (Homo sapiens) (UniProt P68371+Q9H4B7+P0DPH7+P68366+Q13509+Q71U36+P04350+Q3ZCM7+P07437+P68363+Q9BQE3+Q6PEY2+Q13885+Q9BVA1+Q9BUF5); test: Inhibition of microtubule depolymerization in human MCF7 cells at 1.8 nM measured after 12 hrs by immunostaining based confocal microscopic analysis; type: cell-based
[32] = Neurotoxicity in BALB/c mouse assessed as change in GABA level at 12 umol/kg, ip administered every two days for 14 days measured post last dose by LC-MS analysis; type: toxicity, organism-based; settings: in vivo, 336 h, dose 12 µmol/kg, time 14 day

SMILES: CC(=O)O[C@H]1C(=O)[C@@]2(C)[C@H]([C@H](OC(=O)c3ccccc3)[C@]3(O)C[C@H](OC(=O)[C@H](OC(=O)OCCSSC[C@H](N)C(=O)N[C@@H](CC(C)C)C(=O)N[C@@H](CC(C)C)C(=O)N[C@@H](CCCCN)C(=O)N[C@@H](CCCNC(=N)N)C(=O)N[C@@H](Cc4ccccc4)C(=O)N[C@@H](Cc4ccccc4)C(=O)N[C@@H](CCCCN)C(=O)N[C@@H](CCCCN)C(=O)N[C@@H](Cc4ccccc4)C(=O)NCC(=O)N[C@@H](C)C(=O)N[C@@H](CC(C)C)C(=O)NCC(=O)N[C@@H](CC(C)C)C(=O)N4CCC[C@H]4C(=O)NCC(=O)N4CCC[C@H]4C(=O)N[C@@H](CCCNC(=N)N)C(=O)N[C@@H](CC(C)C)C(=O)NCC(=O)N[C@@H](Cc4ccc(O)cc4)C(=O)N[C@@H](CO)C(=O)N[C@@H](Cc4c[nH]c5ccccc45)C(=O)N[C@@H](CCCCN)C(=O)NC(=O)C4CCC(=O)N4)[C@@H](NC(=O)c4ccccc4)c4ccccc4)C(C)=C1C3(C)C)[C@]1(OC(C)=O)CO[C@@H]1C[C@@H]2O (stereo not given in full) (H-C(X1)LLKRFFKKFGALGLPGPRLGYSW-X2)
- Activity [1]: Non-Toxic
- Activity [2]: Non-Toxic
- Activity (MCF7 [3]): Dose-dependent effect
- Drug uptake [4]: Active
- Activity [5]: Non-Toxic
- Activity [6]: Non-Toxic
- Drug uptake [7]: Active
- Activity (MCF7 [8]): 77.2%
- Drug metabolism [9]: Metabolite_Detected
- Activity (MCF7 [10]): inactive
- Activity (MCF7 [11]): Dose-dependent effect
- Activity [12]: Non-Toxic
- Activity [13]: Non-Toxic
- Activity [14]: Non-Toxic
- Activity [15]: Non-Toxic
- IC50 (A2780): 8.3 nM
- Activity (MCF7 [16]): inactive
- Activity (MCF7 [17]): Dose-dependent effect
- Activity [18]: Non-Toxic
- Drug metabolism [19]: Metabolite_Detected
- Activity (MCF7 [20]): 90.1%
- IC50 [21]: 800 nM
- Drug metabolism [22]: Metabolite_Notdetected
- Activity (MCF7 [23]): Active
- Activity (MCF7 [24]): 83.4%
- Activity [25]: Non-Toxic
- IC50 (HT-29): 5.6 nM
- Activity [26]: Non-Toxic
- Stabilty [27]: Stable
- half-life at 50 µM [28]: 2 h
- Activity (MCF7 [29]): Dose-dependent effect
- Drug metabolism [30]: Metabolite_Notdetected
- Drug metabolism [31]: Metabolite_Detected
- inhibition (Tubulin (Homo sapiens)): Active
- Activity [32]: Non-Toxic
